Several values for one entry are separate records, joined by “and”; a condition that tells them apart may be missing. Identical values can stand only once. Like-named read-outs stand apart in the source and are kept apart here.
Assays:
Normal Bone marrow = assay: Cell viability, normal bone marrow; assay type: cell-based; details: Table 4
Procedure: (§1) Bioactivity of the above-described compounds has been verified by an anticancer cell proliferation assay using the WST-1 (4-[3-(4-iodophenyl)-2-(4-nitrophenyl)-2H-5-tetrazolio]-1, 3-benzene disulfonate) colorimetric assay by Roche Life Sciences®. Anticancer activity was tested against several standard cancer cell lines including brain, breast, Kaposi sarcoma, leukemia, lung, melanoma, tenosynovial giant cell tumor, ovarian, pancreatic, colon and prostate cancer. Cells were trypsinized and plated into 96 well plates in 50 μl of media and incubated overnight. The next day approximately 18 hours after plating, 50 μl of media containing the required flavonoid-based pharmaceutical composition was added per well. Cells were plated at a density so that 72 hours post drug addition, the cells will be in log phase (500)-2000 cells/well). The compounds and extracts were solubilized in Dimethyl sulfoxide (DMSO). The cells are allowed to proliferate for 72 hours 37° C. in humidified atmosphere of 5% CO2. The experiment is terminated using WST-1 (Roche®) 10 μl per well and absorbance is read at 450 nm %690 nm. The effect of drugs on growth is assessed as percent of cell viability. The IC50 values were determined from the extract dose versus control growth curves using Graphpad Prism® software. All experiments were carried out in duplicate and the mean results determined.

[1] = system: THP-1 acute myeloid leukemia cell line; assay: WST-1 anticancer cell proliferation assay, THP-1; assay type: cell-based; details: Table 4; read-out: Acute Myeloid Leukemia cell lines THP-1 IC50
Procedure: as §1, with “Anticancer” for “Bioactivity of the above-described compounds has been verified by an anticancer cell proliferation assay using the WST-1 (4-[3-(4-iodophenyl)-2-(4-nitrophenyl)-2H-5-tetrazolio]-1, 3-benzene disulfonate) colorimetric assay by Roche Life Sciences®. Anticancer”

[2] = system: MOLM-14 acute myeloid leukemia cell line; assay: WST-1 anticancer cell proliferation assay, MOLM-14; assay type: cell-based; details: Table 4, read-out: Acute Myeloid Leukemia cell lines MOLM-14 IC50
Procedure: as §1, with “Anticancer” for “Bioactivity of the above-described compounds has been verified by an anticancer cell proliferation assay using the WST-1 (4-[3-(4-iodophenyl)-2-(4-nitrophenyl)-2H-5-tetrazolio]-1, 3-benzene disulfonate) colorimetric assay by Roche Life Sciences®. Anticancer”

MV4-11 AML = assay: In-vivo efficacy on MV4-11 AML (mice with FLT3-mutated acute myeloid leukemia); details: mouse
From the text: The results of the anticancer activity are presented in Tables 3 and 4 (above) and in FIG. 6, Hela cells shown at (A) and CMK cells at (B) and MV4-11 and MOLT-14 acute myeloid leukemia cells.

MV4-11 (Leukemia) = assay: WST-1 anticancer cell proliferation assay, MV4-11; assay type: cell-based; details: Table 4; read-out: Acute Myeloid Leukemia cell lines MV4-11 IC50
Procedure: as §1, with “Anticancer” for “Bioactivity of the above-described compounds has been verified by an anticancer cell proliferation assay using the WST-1 (4-[3-(4-iodophenyl)-2-(4-nitrophenyl)-2H-5-tetrazolio]-1, 3-benzene disulfonate) colorimetric assay by Roche Life Sciences®. Anticancer”

[3] = Toxicity and safety screen, in vitro profiling
From the text: This family of AML-therapeutic targets likewise has the flavone backbone (2-phenyl-1,4-benzopyrone) chemical structure, in this case more defined as shown below (see also FIG. 1B), or any pharmaceutically acceptable salt thereof: […]

FLT3(ITD) = target: T1, FLT3(ITD) (Homo sapiens, UniProt P36888); assay type: binding; details: Table 4; read-out: Acute Myeloid Leukemia Kinases FLT3-ITD IC50
T1 construct: In general, full-length constructs were used for small, single domain kinases, and catalytic domain constructs for large multi-domain kinases; fused on or other part: T7 phage fusion or DNA tag for qPCR detection (general statement)
T1 sequence (P36888 1-993): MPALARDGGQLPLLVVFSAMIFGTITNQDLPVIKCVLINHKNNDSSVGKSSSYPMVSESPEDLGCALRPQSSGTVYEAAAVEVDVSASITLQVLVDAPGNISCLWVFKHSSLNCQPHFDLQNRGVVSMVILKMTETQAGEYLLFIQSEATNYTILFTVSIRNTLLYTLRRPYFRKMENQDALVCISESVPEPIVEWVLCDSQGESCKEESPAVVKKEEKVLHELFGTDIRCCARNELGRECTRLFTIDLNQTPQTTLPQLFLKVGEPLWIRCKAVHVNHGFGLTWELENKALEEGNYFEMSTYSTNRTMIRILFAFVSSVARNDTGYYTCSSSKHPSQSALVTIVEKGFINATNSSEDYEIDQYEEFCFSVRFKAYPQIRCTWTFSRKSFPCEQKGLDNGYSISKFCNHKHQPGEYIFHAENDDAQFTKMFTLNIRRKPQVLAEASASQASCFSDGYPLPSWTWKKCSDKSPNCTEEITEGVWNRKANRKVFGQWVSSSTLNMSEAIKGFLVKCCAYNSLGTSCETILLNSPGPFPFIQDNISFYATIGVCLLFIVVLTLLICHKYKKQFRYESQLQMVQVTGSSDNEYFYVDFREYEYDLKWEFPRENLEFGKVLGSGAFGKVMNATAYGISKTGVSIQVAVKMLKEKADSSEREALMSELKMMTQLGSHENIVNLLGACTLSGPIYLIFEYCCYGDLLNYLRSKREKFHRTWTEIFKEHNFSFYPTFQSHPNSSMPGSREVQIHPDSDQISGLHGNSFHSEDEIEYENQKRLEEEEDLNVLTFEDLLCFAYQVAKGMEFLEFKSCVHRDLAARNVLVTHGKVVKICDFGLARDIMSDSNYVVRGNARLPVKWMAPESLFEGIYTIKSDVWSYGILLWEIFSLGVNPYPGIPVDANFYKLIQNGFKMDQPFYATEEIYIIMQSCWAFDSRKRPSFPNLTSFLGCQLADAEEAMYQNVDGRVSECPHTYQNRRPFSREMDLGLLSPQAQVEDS
Procedure: (§2) Cannabis flavonoids and their analogs were subjected to kinase inhibition assay. The compounds were first screened at a single concentration of 10 μM in the primary assay. […] To determine the kd or IC50 values, competition binding assays were established, authenticated and executed as described previously. […] See also, Karaman et al., “A Quantitative Analysis Of Kinase Inhibitor Selectivity”, Nat. Biotechnol. […] For most assays, kinases were fused to T7 phage strains (Fabian, supra) and for the other assays, kinases were produced in HEK-293 cells after which they were tagged with DNA for quantitative PCR detection. In general, full-length constructs were used for small, single domain kinases, and catalytic domain constructs for large multi-domain kinases. […] The liganded beads were blocked with excess biotin and washed with blocking buffer (SeaBlock (Pierce), 1% BSA, 0.05% Tween 20, 1 mM DTT) to remove unbound ligand and to reduce non-specific phage binding. […] All reactions were performed in polypropylene 384-well plates in a final volume of 0.04 ml. […] The kinase concentration in the eluates was measured by quantitative PCR. An illustration of the kinase interaction process is presented below. Kd/IC50 values were determined using a standard dose response curve using the hill equation. Curves were fitted using a non-linear least square fit with the Levenberg-Marquardt algorithm.

FLT3 = target: T2, FLT3 (Homo sapiens, UniProt P36888); assay type: binding; details: Table 4; read-out: Acute Myeloid Leukemia Kinases FLT3 IC50
T2 construct: made in house
T2 sequence (P36888 27-993): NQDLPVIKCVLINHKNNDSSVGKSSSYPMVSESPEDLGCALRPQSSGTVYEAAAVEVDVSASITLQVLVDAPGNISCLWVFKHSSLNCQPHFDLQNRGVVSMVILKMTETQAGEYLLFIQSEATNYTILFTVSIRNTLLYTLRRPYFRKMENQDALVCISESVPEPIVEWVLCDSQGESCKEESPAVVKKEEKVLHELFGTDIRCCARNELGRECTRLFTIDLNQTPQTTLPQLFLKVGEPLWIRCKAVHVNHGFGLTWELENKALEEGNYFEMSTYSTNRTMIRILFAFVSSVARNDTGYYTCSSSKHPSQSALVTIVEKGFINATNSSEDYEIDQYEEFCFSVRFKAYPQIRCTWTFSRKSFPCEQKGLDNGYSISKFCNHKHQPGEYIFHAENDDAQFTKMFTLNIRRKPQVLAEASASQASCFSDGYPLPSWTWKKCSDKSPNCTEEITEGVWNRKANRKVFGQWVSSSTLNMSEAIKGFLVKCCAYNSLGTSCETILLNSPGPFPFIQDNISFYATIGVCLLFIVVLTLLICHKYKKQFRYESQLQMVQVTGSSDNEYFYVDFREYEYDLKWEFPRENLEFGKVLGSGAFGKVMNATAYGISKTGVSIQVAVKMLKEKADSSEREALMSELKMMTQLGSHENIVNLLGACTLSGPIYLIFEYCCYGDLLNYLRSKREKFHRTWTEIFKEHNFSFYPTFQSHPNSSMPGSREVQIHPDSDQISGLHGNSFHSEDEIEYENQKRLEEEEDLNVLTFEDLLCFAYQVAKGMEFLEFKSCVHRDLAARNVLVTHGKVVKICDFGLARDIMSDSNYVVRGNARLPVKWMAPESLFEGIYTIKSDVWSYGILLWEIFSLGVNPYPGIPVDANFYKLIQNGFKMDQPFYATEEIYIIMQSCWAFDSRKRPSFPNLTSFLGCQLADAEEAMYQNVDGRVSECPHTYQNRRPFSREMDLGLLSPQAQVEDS
Procedure: as §2

[4] = system: 60 cancer cell line panel; details: US National Cancer Institute 60 cancer cell line panel, NSC:719330; cited from earlier work

For `COc1cc(-c2cc(=O)c3c(O)cc(O)cc3o2)ccc1O` [FBLGS-70], the IC50 (Normal Bone marrow) was > 100 µM, the IC50 [1] was > 100 µM and the IC50 [2] was 1.7 µM. The “in-vivo efficacy on MV4-11 AML” value (MV4-11 AML) was “significant in-vivo efficacy”, the IC50 (MV4-11 (Leukemia)) was 1.25 µM and the “toxicity or safety screen issues” value [3] was “no detectable toxicity or safety screen issues”.
For `COc1ccc(-c2cc(=O)c3c(O)cc(O)cc3o2)cc1` [FBLGS-73], the IC50 (FLT3(ITD)) was 0.079 µM and 0.046 µM, the IC50 (FLT3) was 0.127 µM and 0.152 µM and the IC50 [2] was 3.68 µM and 4.86 µM.
With `CO[C@@H]1[C@H](N(C)C(=O)c2ccccc2)C[C@H]2O[C@]1(C)n1c3ccccc3c3c4c(c5c6ccccc6n2c5c31)C(=O)NC4` [Midostaurin, reference compound] the IC50 ([2]; Homo sapiens, MOLM-14) was 0.022 µM.
In the case of `COc1cc(-c2cc(=O)c3c(O)c(CC=C(C)C)c(O)cc3o2)ccc1O` [cannflavin B], the “cytotoxicity against cancer cells” value [4] is listed as “not cytotoxic”.

Source: US20180353462A1, “[…] AGENTS […] FLAVONOID DERIVATIVES TARGETING KINASES, SIRTUINS AND ONCOGENIC AGENTS FOR THE TREATMENT OF CANCERS” (priority 2015, published 2018)
